Data set [1] can be described thus: Toxicity in BALB/c mouse implanted with mouse 4T1 cells assessed as increase in ALT level at 0.2 mmol/Kg, po administered once every day for 14 days by routine blood analysis. The format is organism-based. Conditions: in vivo, 336 h, time 14 day.
The nature of data set [2]: Toxicity in BALB/c mouse implanted with mouse 4T1 cells assessed as increase in white blood cells at 0.2 mmol/Kg, po administered once every day for 14 days by routine blood analysis. It counts as organism-based. Conditions: in vivo, 336 h, time 14 day.
Data set [3] is described as follows: Prodrug conversion in Sprague-Dawley rat plasma assessed as Stachydrine release at 10 mg/kg, iv measured after 24 hrs by LC-MS/MS analysis. Conditions: in vivo. The format is ADME, organism-based.
Data set [4] is described as follows: Toxicity in BALB/c mouse implanted with mouse 4T1 cells assessed as body weight loss at 0.2 mmol/Kg, po administered once daily for 14 days. It counts as organism-based. Conditions: in vivo, 336 h, time 14 day.
For data set [5], the system named is 4T1. Briefly: Inhibition of cell migration in mouse 4T1 cells assessed as expansion of wound area at 30 micromol/mL incubated for 24 hrs by microscopic analysis. It counts as functional, cell-based. Conditions: dose 30.0 µmol/ml.
A short description of data set [6]: Cmax in Sprague-Dawley rat plasma at 10 mg/kg, po measured upto 24 hrs by LC-MS/MS analysis. The format is ADME, organism-based.
A short description of data set [7]: Prodrug conversion in serum (unknown origin) assessed as drug hydrolysis by measuring stachydrine release at 3 to 20 hrs. It counts as ADME, cell-free. Conditions: time 3-20 hrs.
The nature of data set [8]: Half life in Sprague-Dawley rat plasma at 10 mg/kg, po measured upto 24 hrs by LC-MS/MS analysis. It counts as ADME, organism-based.
The nature of data set [9]: Toxicity in BALB/c mouse implanted with mouse 4T1 cells assessed as effect on BUN level at 0.2 mmol/Kg, po administered once every day for 14 days by routine blood analysis. Conditions: in vivo, 336 h, time 14 day. It counts as organism-based.
Data set [10] can be described thus: Toxicity in BALB/c mouse implanted with mouse 4T1 cells assessed as effect on CREA level at 0.2 mmol/Kg, po administered once every day for 14 days by routine blood analysis. The format is organism-based. Conditions: in vivo, 336 h, time 14 day.
The test system of data set [11] is 4T1. Briefly: Induction of mitochondrial membrane potential loss in mouse 4T1 cells assessed as red fluorescence at 10 uM incubated for 24 hrs by JC-1 staining based flow cytometric analysis (Rvb= 87.9%). It counts as cell-based. (In general: A flow cytometer gives signals particle by particle.)
Data set [12] relates to 4T1. The data set can be described thus: Induction of mitochondrial membrane potential loss in mouse 4T1 cells assessed as green fluorescence at 10 uM incubated for 24 hrs by JC-1 staining based flow cytometric analysis (reference value: 11.7%). The format is cell-based.
The nature of data set [13]: Toxicity in BALB/c mouse implanted with mouse 4T1 cells assessed as change in kidney histopathology at 0.2 mmol/Kg, po administered once every day for 14 days. Conditions: in vivo, 336 h, time 14 day. The format is organism-based.
Data set [14] relates to 4T1. The data set can be described thus: Antitumor activity against mouse 4T1 cells implanted in BALB/c mouse assessed as appearance of larger void areas in tumor at 0.2 mmol/Kg, po administered once daily for 14 days by histological staining based analysis. It counts as functional, organism-based. Conditions: time 14.0 day.
Data set [15] can be described thus: Toxicity in BALB/c mouse implanted with mouse 4T1 cells assessed as increase in lymphocytes at 0.2 mmol/Kg, po administered once every day for 14 days by routine blood analysis. It counts as organism-based. Conditions: in vivo, 336 h, time 14 day.

Calls of active or inactive are those of the source. No cut-off for these calls is given here.

In the case of `CCCCCCCCCCCCOC(=O)C1CCC[N+]1(C)C.[Cl-]` (stereo not given), the Activity entry was “Toxic” in data set [1]; “Non-Toxic” in [2]; “Toxic” in [4]; “Non-Toxic” in data set [9]; “Non-Toxic” in data set [10]; 43.1% in [11]. In addition, the Activity in [12] was 56.8%; in data set [13], “Non-Toxic”; in [15], “Non-Toxic”. For the same compound, the Drug metabolism entry in data set [3] and in [7] was “Metabolite_Detected” each time. The inhibition entry in [5] was “Active”. This compound also came in with a Cmax in [6] of 6100 ng/mL. Moreover, in data set [8], the half-life was 7.62 h. For the same compound, in [14], the result was Active.

The Cmax is the peak of the concentration-time curve. One may read the half-life as how long it takes for the measured level to halve. A lower half-life goes with rapid decline.

For the origin of these results see ChEMBL document CHEMBL5625202, “Synthesis, characterization and anti-breast cancer activities of stachydrine derivatives” (Eur J Med Chem, 2023).
